Our source for the TGI values is PubChem BioAssay (NCI).

Each structure is given as a SMILES string.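 Grown in 96-well plates, cells were treated for 48 hours with each compound at five concentrations. Insufficient inhibition: endpoint recorded as highest concentration tested. The concentration for full growth arrest is given as TGI.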

Some test systems named below: SK-MEL-5 melanoma; NCI-H460 lung; T-47D breast; MDA-MB-231 breast; OVCAR-8 ovarian; SF-539 CNS; HCC-2998 colon; RXF 393 renal; SW-620 colon; ACHN renal; OVCAR-5 ovarian; NCI-H226 lung; HCT-116 colon; K-562 leukemia; LOX IMVI melanoma; SR leukemia; SNB-19 CNS.
What all share (assay): NCI tumour cell line growth inhibition, 48 h

Take `CCOc1cc(/C=C2\N=C(c3ccccc3)N(c3nc4ccccc4s3)C2=O)ccc1O`: the TGI with SK-MEL-5 melanoma is 41.4 µM; in the experiment on NCI-H460 lung it was over 100 µM; in the experiment with T-47D breast it was over 100 µM; in the experiment on MDA-MB-231 breast, over 100 µM; in the experiment with OVCAR-8 ovarian, over 100 µM; with SF-539 CNS, over 100 µM. The TGI with HCC-2998 colon was 97.3 µM; in the experiment on RXF 393 renal it was over 100 µM; with SW-620 colon it was over 100 µM; in the experiment on ACHN renal it was over 100 µM; with OVCAR-5 ovarian, over 100 µM; with NCI-H226 lung, over 100 µM. Besides, the TGI in the experiment on HCT-116 colon, in the experiment with K-562 leukemia, with LOX IMVI melanoma and with SR leukemia was over 100 µM throughout.
With `O=C1c2cc([N+](=O)[O-])sc2C(=O)c2cc([N+](=O)[O-])sc21`, the TGI in the experiment on SK-MEL-5 melanoma came out at 7.21 µM; in the experiment with NCI-H460 lung, 43.8 µM; in the experiment on T-47D breast, 10.8 µM; with MDA-MB-231 breast, 5.66 µM; in the experiment on OVCAR-8 ovarian, 18.6 µM; with SF-539 CNS it was 8.51 µM. For the same compound, the TGI in the experiment on HCC-2998 colon was 8.56 µM; in the experiment on RXF 393 renal it was 15.5 µM; with SW-620 colon, 3.37 µM; in the experiment with ACHN renal, 10.1 µM; in the experiment with OVCAR-5 ovarian, 15.5 µM; in the experiment with NCI-H226 lung, 26.3 µM. Further, the TGI in the experiment with HCT-116 colon was found to be 3.24 µM; with LOX IMVI melanoma, 3.68 µM; in the experiment on SR leukemia, 6 µM; in the experiment with SNB-19 CNS it was 8.9 µM.
In the case of `COC(=O)/C=C/c1cnc2c(c1)oc(=O)n2C`, the TGI in the experiment on SK-MEL-5 melanoma, in the experiment on NCI-H460 lung, with T-47D breast, in the experiment on MDA-MB-231 breast, with OVCAR-8 ovarian and in the experiment on SF-539 CNS was over 100 µM throughout. Moreover, the TGI in the experiment with HCC-2998 colon, with SW-620 colon, with ACHN renal, in the experiment on OVCAR-5 ovarian, with NCI-H226 lung and in the experiment on HCT-116 colon was over 100 µM each time. For the same compound, the TGI with K-562 leukemia, in the experiment on LOX IMVI melanoma, with SR leukemia and with SNB-19 CNS was over 100 µM each time.
In the case of `Nc1nc(Cc2ccccc2)nc(Cc2ccccc2)c1-c1ccccc1`, the TGI with SK-MEL-5 melanoma is 29.2 µM; with NCI-H460 lung, over 100 µM; with T-47D breast it was over 100 µM; in the experiment with MDA-MB-231 breast, 49.1 µM; with OVCAR-8 ovarian it was over 100 µM; with HCC-2998 colon, over 100 µM. Besides, the TGI was over 100 µM with RXF 393 renal; over 100 µM in the experiment on SW-620 colon; over 100 µM in the experiment with ACHN renal; over 100 µM in the experiment on OVCAR-5 ovarian; 53.4 µM with NCI-H226 lung; 46 µM in the experiment with HCT-116 colon. For the same compound, the TGI in the experiment with K-562 leukemia was over 100 µM; in the experiment with LOX IMVI melanoma, 51.4 µM; in the experiment on SR leukemia, 48.5 µM; in the experiment with SNB-19 CNS, over 100 µM.
In the case of `O=C1NC(N2CCCCC2)=N/C1=C\c1ccccc1`, the TGI in the experiment with T-47D breast, in the experiment with MDA-MB-231 breast, with OVCAR-8 ovarian, in the experiment on SF-539 CNS, in the experiment on HCC-2998 colon and with RXF 393 renal was over 100 µM each time. Besides, the TGI in the experiment on SW-620 colon, in the experiment with ACHN renal, in the experiment with OVCAR-5 ovarian, with NCI-H226 lung, in the experiment with HCT-116 colon and with LOX IMVI melanoma was over 100 µM each time. Further, the TGI in the experiment with SR leukemia and in the experiment with SNB-19 CNS was over 100 µM throughout.
Consider `Fc1cc2nc3n(c2cc1F)C(c1c(Cl)cccc1Cl)SC3` (stereo unspecified), for which the TGI in the experiment with SK-MEL-5 melanoma turned out to be 20.4 µM; in the experiment with NCI-H460 lung, 26.6 µM; in the experiment with T-47D breast it was 31.7 µM; in the experiment with MDA-MB-231 breast, 34.6 µM; in the experiment on OVCAR-8 ovarian it was 29.5 µM; in the experiment on SF-539 CNS, 37.1 µM. Moreover, the TGI in the experiment with HCC-2998 colon was determined as 29.3 µM; with RXF 393 renal it was 28.5 µM; in the experiment on SW-620 colon it was 34 µM; with ACHN renal it was 31.7 µM; in the experiment on OVCAR-5 ovarian it was 27.7 µM; in the experiment with NCI-H226 lung it was 45.7 µM. In addition, the TGI in the experiment with HCT-116 colon turned out to be 25.2 µM; with LOX IMVI melanoma it was 31.7 µM; in the experiment on SR leukemia, 48.5 µM; in the experiment with SNB-19 CNS it was 27 µM.
As to `CC1(C)CC[C@]2(C(=O)O)CC[C@]3(C)C(=CC[C@@H]4[C@@]5(C)CC[C@H](OC6OC(CO)C(O)C(O)C6O)C(C)(C)[C@@H]5CC[C@]43C)[C@@H]2C1` (stereo partly specified), the TGI came to 3.54 µM with SK-MEL-5 melanoma; 14.3 µM with NCI-H460 lung; 3.55 µM in the experiment with T-47D breast; 3.07 µM in the experiment on MDA-MB-231 breast; 3.12 µM in the experiment with OVCAR-8 ovarian; 3.18 µM in the experiment on HCC-2998 colon. The TGI stood at 3.77 µM with RXF 393 renal; 3.51 µM in the experiment on SW-620 colon; 3.04 µM with ACHN renal; 4.12 µM in the experiment on OVCAR-5 ovarian; 3.4 µM with NCI-H226 lung; 3.13 µM in the experiment on HCT-116 colon. Besides, the TGI in the experiment with K-562 leukemia amounted to 3.67 µM; in the experiment on LOX IMVI melanoma, 3.23 µM; in the experiment with SR leukemia, 5.53 µM; with SNB-19 CNS it was 2.89 µM.
In the case of `CN(C(=O)c1ccc(Cl)cc1)C(=S)N1CCN(c2ccccc2)CC1`, the TGI with SK-MEL-5 melanoma, in the experiment with NCI-H460 lung, with T-47D breast, in the experiment with MDA-MB-231 breast, in the experiment with OVCAR-8 ovarian and with HCC-2998 colon was over 100 µM each time. The TGI with RXF 393 renal, in the experiment with SW-620 colon, in the experiment with ACHN renal, in the experiment with OVCAR-5 ovarian, in the experiment with NCI-H226 lung and with K-562 leukemia was over 100 µM in each case. Further, the TGI with LOX IMVI melanoma, with SR leukemia and with SNB-19 CNS was over 100 µM throughout.
Consider `OC1(C2(c3ccc(Cl)cc3)CCCC2)c2ccccc2C2=NCCN21` (stereo unspecified), for which the TGI with SK-MEL-5 melanoma is 25.1 µM; with NCI-H460 lung, 29 µM; in the experiment on T-47D breast it was 22 µM; with MDA-MB-231 breast, 29.6 µM; in the experiment with OVCAR-8 ovarian, 32 µM; with HCC-2998 colon it was 4 µM. Also, the TGI in the experiment on RXF 393 renal came to 9.51 µM; in the experiment on SW-620 colon it was 48.6 µM; in the experiment on ACHN renal, 30.5 µM; with OVCAR-5 ovarian it was 29.5 µM; in the experiment on NCI-H226 lung it was 33 µM; in the experiment with HCT-116 colon, 24.4 µM. Moreover, the TGI with K-562 leukemia is 20.4 µM; in the experiment on LOX IMVI melanoma, 28.3 µM; with SR leukemia, 37.9 µM; in the experiment on SNB-19 CNS it was 30.5 µM.
